In publication PMC9464622, “The collectin SP-A and its trimeric recombinant fragment protect alveolar epithelial cells from the cytotoxic and proinflammatory effects of human cathelicidin in vitro” (Frontiers in Immunology, 2022):

How the values were obtained:
A549 cells = assay: LL-37-induced IL-8 secretion (ELISA); format: cell-based, human; details: A-438079 10 µM, 15 min pre-treatment; LL-37 15 µM, 24 h
Protocol: A549 cells were seeded to a density of 50,000 cells per well in a 96-well tissue culture plate for 18 h in RPMI 1640 medium supplemented with antibiotics, 2 mM L-glutamine, and 5% FBS.
Secreted IL-8 was quantified in supernatants of A549 cells by ELISA (R&D Systems) following the supplier instructions. Briefly, anti-human IL-8 was coated on a 96-well Nunc-Immuno Plate MaxiSorp Surface (Thermo Scientific, Waltham, MA) in PBS overnight. After blocking with PBS and 10% FBS, and extensive washing, samples and standards were incubated for 2 h at room temperature. IL-8 cytokine was detected with biotinylated detection antibody and streptavidin-HRP. The colorimetric reaction was developed with tetramethylbenzidine (BD Biosciences, San Diego, CA) and was stopped with 4 M sulfuric acid. The absorbance at 450 nm was read on an ELISA reader (RT-6100 plate reader, Rayto Life and Analytical Sciences, Shenzhen, China).

K. pneumoniae K2 [1] = assay: Bacterial killing assay, K. pneumoniae; details: 10^5 CFU/ml, PBS, 1 h 37°C; SP-A 0.11 µM, rfhSP-A 0.7 µM; increasing LL-37; CFU counting
Protocol: (§2) Klebsiella pneumoniae 52145 (serotype K2:O1), nontypeable Haemophilus influenzae strain 375 (NTHi), and P. aeruginosa (PAO1) are clinical isolates, as previously described ([40]–[42]). P. aeruginosa, and K. pneumoniae K2 were grown in Luria–Bertani (LB) broth at 37°C with continuous shaking to the exponential phase. Frozen stocks of NTHi strains were thawed and then grown on chocolate agar plates during 18 h at 37°C in a humidified 5% CO2 atmosphere. Then, NTHi were grown to the exponential phase on brain heart infusion broth (BHI) supplemented with 10 µg/ml hemin and 10 µg/ml β-nicotinamide adenine dinucleotide (β-NAD) (sBHI) with continuous shaking at 37°C in a humidified 5% CO^2 atmosphere. Exponential-phase bacteria were then harvested by centrifugation at 500 g for 10 min, resuspended in PBS, and adjusted to the desired final concentration, as described in ([24]).
(§3) The microbicidal activity of LL-37 in the presence of SP-A or rfhSP-A was evaluated by colony counts on plate assays ([24], [25]). […] Viable bacteria were enumerated by colony count and results were expressed as a percentage of relative survival in comparison to untreated bacteria.

[2] = LPS vesicle aggregation assay (turbidity, DLS); format: biochemical, Salmonella enterica serotype Minnesota; details: Re-LPS/BPL 50 µg/ml, 75 nM SP-A, 1.1 µM LL-37, 0.43 µM rfhSP-A, 37°C
Protocol: Vesicles mimicking the inner membrane of Gram-negative bacteria were prepared by mixing POPE, POPG, and CL at weight ratios of 67:23:10. Alternatively, vesicles mimicking bacterial outer membrane were prepared by adding ReLPS to the POPE/POPG/CL mixture (BPL, bacterial phospholipids) at a weight ratio of 8:2, as previously reported ([25]). Multilamellar vesicles and large unilamellar vesicles of DPPC and surfactant-like vesicles composed of DPPC, POPG, and palmitic acid (PA) (at weight ratios of 23:10:1.6) were prepared as previously reported ([28], [33]–[35], [39]).
Turbidity measurements: The effects of SP-A, rfhSP-A, and calcium on the aggregation of LPS vesicles that mimic bacterial outer membranes were studied in the absence and presence of LL-37 by measuring the change in absorbance at 400 nm in a Beckman DU-800 spectrophotometer ([28], [39]). Briefly, LPS vesicles (50 μg/ml) were added to both the sample and the reference cuvettes in 5 mM Tris-HCl and 150 mM NaCl 0.1 mM EDTA buffer, pH 7.4. After 10 min equilibration at 37°C, either human SP-A, rfhSP-A, LL-37, or combinations thereof was added to the sample cuvette, and the change in optical density at 400 nm was monitored. Next, 2.5 mM Ca^2+ was added to both the sample and reference cuvettes, and the change in absorbance was monitored again. Aggregation of surfactant phospholipid vesicles was performed in the same way. […]

[3] = test system: alveolar epithelial cells; details: cited from earlier work
Text: (§1) The host appears to protect its own cells from LL-37 cytotoxicity by several mechanisms. […] In addition, the C1q globular head receptor (gC1qR, also known as p33) protects ...

influenza A virus = details: cited from earlier work
Text: as §1

P. aeruginosa = assay: Bacterial killing assay, P. aeruginosa; details: 10^5 CFU/ml, PBS, 1 h 37°C; SP-A 0.012 µM, rfhSP-A 0.075 µM; increasing LL-37
Protocol: as §2, §3

[4] = test system: nontypeable Haemophilus influenzae; assay: Bacterial killing assay, NTHi; details: 10^5 CFU/ml, PBS + 1% TSB, 1 h 37°C; SP-A 0.025 µM, rfhSP-A 0.15 µM; increasing LL-37
Protocol: as §2, §3

[5] = Circular dichroism: secondary structure with and without bacterial lipid vesicles; format: physicochemical; details: far-UV CD, 25°C, 5 mM Tris-HCl, 150 mM NaCl pH 7.4; 100 µg/ml LL-37, 75 µg/ml SP-A or rfhSP-A; mixture compared with sum of individual spectra
Protocol: Circular dichroism (CD) spectra were obtained on a Jasco J-715 spectropolarimeter fitted with a 150 W xenon lamp ([38]). Quartz cells with a 0.1 cm optical path length were used, and the spectra were recorded in the far-UV region (190-260 nm) with a scanning speed of 50 nm/minute at 25°C. Four scans were accumulated and averaged for each spectrum. The acquired spectra were corrected by subtracting the appropriate blanks, subjected to noise reduction analysis, and presented as molar ellipticities (degrees cm2 dmol-1) assuming 110 Da as the average molecular mass per amino acid residue. At least three independent preparations of LL-37, SP-A, and rfhSP-A were measured. Spectra Manager Software (Jasco version 1.53) was used.
Two types of lipid vesicles were used: vesicles mimicking the bacterial cell wall (Re-LPS/BPL at a ratio of 08:02 by weight), and vesicles of bacterial inner membrane phospholipids (BPL). The final concentrations were 100 μg/ml (22.2 μM) for LL-37, 75 μg/ml (0.11 μM) for SP-A, and 75 μg/ml (1.3 μM) for rfhSP-A, in a final volume of 200 μl of 5 mM Tris-HCl, NaCl 150 mM, pH 7.4 buffer.
Vesicles mimicking the inner membrane of Gram-negative bacteria were prepared by mixing POPE, POPG, and CL at weight ratios of 67:23:10. […]

K. pneumoniae = assay: Bacterial membrane permeabilization, Sytox Green; format: cell-based, Klebsiella pneumoniae; details: 2.2 µM LL-37, 0.075 µM SP-A, 0.4 µM rfhSP-A, PBS pH 7.4, 37°C; three independent experiments
Protocol: The ability of LL-37, SP-A, rfhSP-A, and combinations thereof to permeabilize the outer and cytoplasmic bacterial membranes was studied in live bacteria by quantifying the internalization of the impermeant fluorescent Sytox Green, since its fluorescence increases when binding to bacterial DNA. For the measurement of Sytox Green influx, the probe (1 μM) was added to 1 ml of bacterial suspension (2x10^7 CFU/ml) in PBS and the sample was incubated for 15 min in darkness at room temperature as described in ([25]). Then, the fluorescence of the Sytox Green/bacterial suspension mixture was monitored for 4 hours in a FLUOstar Omega microplate reader (BMG LabTechnologies, Ortenberg, Germany) at excitation and emission wavelengths of 485 and 520 nm, respectively. PBS was used as a negative control, whereas ethanol (70%) was used as a positive control. Background fluorescence was measured in non-labeled bacteria.

K. pneumoniae K2 [6] = assay: Transmission electron microscopy of bacteria; format: cell-based, Klebsiella pneumoniae; details: LL-37 55.5 µM, SP-A 0.3 µM, rfhSP-A 1.5 µM, 30 min 37°C PBS; TEM
Protocol: The effect of LL-37, SP-A, rfhSP-A, and combinations thereof on the ultrastructure of K. pneumoniae was visualized by means of transmission electron microscopy, as described in ([25]). […] Cells were spun down and PBS medium was removed. Cell pellets were then chemically fixed with 4% paraformaldehyde and 2.5% glutaraldehyde for 4 h at 4°C and washed three times with PBS. Next, bacteria were post-fixed with 1% osmium tetroxide for 1 h. Samples were then washed thrice with bi-distilled water and dehydrated using sequential exposure to acetone concentrations ranging from 30% to 100% for 15 min at room temperature. Next, infiltration and embedding were performed using Spurr’s resin. The samples were sectioned using an ultramicrotome with a diamond knife and were mounted on copper grids. Samples were examined on a JEOL JEM 1010 electron microscope (JEOL, Tokyo, Japan).

human endothelial cells = details: cited from earlier work
Text: as §1

[7] = cited from earlier work
Text: The host appears to protect its own cells from LL-37 cytotoxicity by several mechanisms.

Compound | IL-8 release, A549, with P2X7 inhibitor (A549 cells) | effect on antibacterial activity of LL-37 against K. pneumoniae (K. pneumoniae K2 [1]) | LPS vesicle aggregation (scattered light), with calcium ([2]; 2.5 mM Ca2+, pH 7.4) | LPS vesicle turbidity (400 nm), no calcium ([2]; pH 7.4, before Ca2+) | effect on human β-defensin 3 cytotoxicity on alveolar epithelial cells [3] | antiviral activity against influenza A virus, LL-37 with SP-A (influenza A virus) | effect on antibacterial activity of LL-37 against P. aeruginosa (P. aeruginosa) | effect on antibacterial activity of LL-37 against NTHi [4] | CD spectrum / change in α-helical content [5] | Sytox Green permeabilization of K. pneumoniae (K. pneumoniae) | effect on ultrastructure of K. pneumoniae (K. pneumoniae K2 [6]) | effect on LL-37 cytotoxicity on human endothelial cells (human endothelial cells) | effect on antimicrobial activity of LL-37 [7]
Clc1cccc(-c2nnnn2Cc2cccnc2)c1Cl [A-438079, reference compound] | decreased LL-37-induced IL-8 secretion |  |  |  |  |  |  |  |  |  |  |  | 
SP-A: Human surfactant protein A isolated from bronchoalveolar lavage fluid of patients with alveolar proteinosis | not observed in the presence of the P2X7 inhibitor | neither SP-A nor rfhSP-A modifies the antibacterial activity of LL-37 | greatly increased | did not affect sample turbidity | reduced cytotoxicity on alveolar epithelial cells | additive antiviral activity against influenza A virus | neither SP-A nor rfhSP-A modifies the antibacterial activity of LL-37 | neither SP-A nor rfhSP-A modifies the antibacterial activity of LL-37 | marked decrease of negative ellipticity without any shift of the minimum at 207 nm | did not affect the fluorescence of the dye | did not cause any perturbation of the bacterial cell wall |  | 
apolipoprotein A-I: HDL apolipoprotein A-I |  |  |  |  |  |  |  |  |  |  |  | reduces the cytotoxicity of LL-37 on human endothelial cells | reduces the antimicrobial activity of LL-37
